Source: patent publication US10294236B2, “Compounds as rearranged during transfection (RET) inhibitors” (GLAXOSMITHKLINE INTELLECTUAL PROPERTY DEVELOPMENT LIMITED, priority 2014, dated 2019)
Where a name gives a salt, the structure may show the parent alone.

Target: T1, Human RET kinase cytoplasmic domain (Homo sapiens, UniProt P07949)
T1 construct: made in house
T1 sequence (P07949 658-1114): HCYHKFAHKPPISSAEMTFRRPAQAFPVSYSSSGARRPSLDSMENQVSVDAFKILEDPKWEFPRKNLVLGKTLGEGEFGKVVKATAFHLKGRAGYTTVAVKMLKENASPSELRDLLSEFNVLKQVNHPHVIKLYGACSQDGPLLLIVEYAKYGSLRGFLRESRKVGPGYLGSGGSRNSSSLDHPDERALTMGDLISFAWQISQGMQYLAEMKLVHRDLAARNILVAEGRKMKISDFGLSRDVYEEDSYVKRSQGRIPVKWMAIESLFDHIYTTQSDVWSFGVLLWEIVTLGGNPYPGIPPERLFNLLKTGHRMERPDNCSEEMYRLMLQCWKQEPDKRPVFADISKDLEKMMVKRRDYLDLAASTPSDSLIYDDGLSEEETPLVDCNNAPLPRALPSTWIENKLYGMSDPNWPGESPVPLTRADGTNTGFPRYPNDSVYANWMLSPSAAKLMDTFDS
Assay: RET kinase enzymatic assay
Format: biochemical
Method: GST-RET was purified using glutathione sepharose chromatography. The RET kinase enzymatic assay was performed in a total volume of 10 uL with increasing concentrations of RET kinase inhibitor as a singlet in a 384 well format as follows: RET inhibitor compound plates are prepared by adding 100 nL of RET inhibitor at different concentrations to a 384-well plate. 5 μL/well of a 2× enzyme mix (50 mM HEPES (4-(2-hydroxyethyl)-1-piperazineethanesulfonic acid); 1 mM CHAPS (3-[(3-cholamidopropyl)dimethylammonio]-1-propanesulfonate); 0.1 mg/mL BSA (bovine serum albumin); 1 mM DTT (dithiothreitol); 0.2 nM RET kinase) was added to the 384-well plate and incubated for 30 minutes at 23° C. 5 µL/well of a 2× substrate mix (50 mM HEPES; 1 mM CHAPS; 0.1 mg/mL BSA; 20 μM adenosine triphosphate; 20 mM MgCl2 and 1 μM biotinylated peptide substrate) was added and incubated for 1 hour at 23° C. […] IC50s were fitted using GraphPad Prism to a sigmoidal dose response.

IC50	SMILES
< 100 nM	CCOc1cc(-c2ccc(NC(=O)Nc3ccc(C(C)(C)O)c(C(F)(F)F)c3)c(F)c2)c[nH]c1=O [Example 129]
100 to 500 nM	CCOc1ccc(NC(=O)Nc2ccc(-c3ccc(=O)n(CC)c3)cc2F)cc1C(F)(F)F [Example 113]
< 100 nM	CCOc1cc(-c2ccc(NC(=O)Nc3ccc(CC(C)(C)CO)c(C(F)(F)F)c3)c(F)c2)c[nH]c1=O [Example 64, 1-(4-(5-Ethoxy-6-oxo-1,6-dihydropyridin-3-yl)-2-fluorophenyl)-3-(4-(3-hydroxy-2,2-dimethylpropyl)-3-(trifluoromethyl)phenyl)urea]
< 100 nM	CCOc1cc(-c2ncc(NC(=O)Nc3ccc(C(C)N)c(C(F)(F)F)c3)c(C)n2)c[nH]c1=O (stereo not drawn) [Example 175, 1-(4-(1-Aminoethyl)-3-(trifluoromethyl)phenyl)-3-(2-(5-ethoxy-6-oxo-1,6-dihydropyridin-3-yl)-4-methylpyrimidin-5-yl)urea]
< 100 nM	CCOc1cc(-c2ccc(NC(=O)Nc3ccc(OC4(C)CCN(C)C4)c(C(F)(F)F)c3)c(F)c2)c[nH]c1=O (stereo not drawn) [Example 144]
< 100 nM	CCOc1cc(-c2ccc(NC(=O)Nc3cnc(OC(C)C)c(C(F)(F)F)c3)c(F)c2)c[nH]c1=O [Example 92]
< 100 nM	COc1cc(-c2ccc(NC(=O)Nc3ccc(OC4(C)COC4)c(C(F)(F)F)c3)cc2)c[nH]c1=O [Example 21, 1-(4-(5-Methoxy-6-oxo-1,6-dihydropyridin-3-yl)phenyl)-3-(4-((3-methyloxetan-3-yl)oxy)-3-(trifluoromethyl)phenyl)urea]
< 100 nM	CCOc1cc(-c2ncc(NC(=O)Nc3cc(C(C)(C)C(F)(F)F)on3)cn2)c[nH]c1=O [Example 181, 1-(2-(5-Ethoxy-6-oxo-1,6-dihydropyridin-3-yl)pyrimidin-5-yl)-3-(5-(1,1,1-trifluoro-2-methylpropan-2-yl)isoxazol-3-yl)urea hydrochloride]
< 100 nM	CCOc1cc(=O)[nH]cc1-c1ccc(NC(=O)Nc2cc(C(F)(F)F)ccc2F)c(F)c1 [Example 128]
< 100 nM	CCOc1cc(-c2ccc(NC(=O)Nc3ccc(OC4(C)COC4)c(C(F)(F)F)c3)c(C)n2)c[nH]c1=O [Example 50, 1-(5′-Ethoxy-6-methyl-6′-oxo-1′,6′-dihydro-[2,3′-bipyridin]-5-yl)-3-(4-((3-methyloxetan-3-yl)oxy)-3-(trifluoromethyl)phenyl)urea hydrochloride]
< 100 nM	CCOc1cc(=O)[nH]cc1-c1ncc(NC(=O)Nc2ccc(CN(C)C)c(C(F)(F)F)c2)c(C)n1 [Example 55, 1-(4-((Dimethylamino)methyl)-3-(trifluoromethyl)phenyl)-3-(2-(4-ethoxy-6-oxo-1,6-dihydropyridin-3-yl)-4-methylpyrimidin-5-yl)urea]
< 100 nM	CCOc1cc(-c2ncc(NC(=O)Nc3cc(C(F)(F)F)c(CN4CCN(CCO)CC4)cc3F)c(C)n2)c[nH]c1=O [Example 171, 1-(2-(5-Ethoxy-6-oxo-1,6-dihydropyridin-3-yl)-4-methylpyrimidin-5-yl)-3-(2-fluoro-4-((4-(2-hydroxyethyl)piperazin-1-yl)methyl)-5-(trifluoromethyl)phenyl)urea]
< 100 nM	CCOc1cc(-c2ncc(NC(=O)Nc3ccc(C4(CO)CC4)c(C(F)(F)F)c3)c(C)n2)c[nH]c1=O [Example 66, 1-(2-(5-Ethoxy-6-oxo-1,6-dihydropyridin-3-yl)-4-methylpyrimidin-5-yl)-3-(4-(1-(hydroxymethyl)cyclopropyl)-3-(trifluoromethyl)phenyl)urea hydrochloride]
< 100 nM	CCOc1cc(-c2ccc(NC(=O)Nc3ccc(OC4(C)CCC4)c(C(F)(F)F)c3)c(F)c2)c[nH]c1=O [Example 149]
< 100 nM	CCOc1cc(F)c(C(F)(F)F)cc1NC(=O)Nc1ccc(-c2c[nH]c(=O)c(OCC)c2)cc1F [Example 153]
< 100 nM	CCOc1cc(-c2ccc(NC(=O)Nc3ccc(C#N)c(C(F)(F)F)c3)c(F)c2)c[nH]c1=O [Example 158]
< 100 nM	CCOc1cc(-c2ccc(NC(=O)Nc3ccc(OC4(C)CS(=O)(=O)C4)c(C(F)(F)F)c3)c(F)c2)c[nH]c1=O [Example 150]
< 100 nM	CCOc1cc(-c2ncc(NC(=O)Nc3cc(OCCN4CCOCC4)cc(C(F)(F)F)c3)c(C)n2)c[nH]c1=O [Example 99]

IC50	SMILES
< 100 nM	CC1(Oc2ccc(NC(=O)Nc3ccc(-c4ccc(=O)[nH]c4)cc3F)cc2C(F)(F)F)COC1 [Example 147]
< 100 nM	CCOc1cc(=O)[nH]cc1-c1ncc(NC(=O)Nc2ccc(C(C)(C)C(N)=O)c(C(F)(F)F)c2)c(C)n1 [Example 61, 2-(4-(3-(2-(4-Ethoxy-6-oxo-1,6-dihydropyridin-3-yl)-4-methylpyrimidin-5-yl)ureido)-2-(trifluoromethyl)phenyl)-2-methylpropanamide]
100 to 500 nM	CCOc1cc(-c2ncc(NC(=O)Nc3ccc(CN4CCCC4)c(C(F)(F)F)c3)c(C)n2)c[nH]c1=O [Example 111]
< 100 nM	Cc1cc(-c2ccc(NC(=O)Nc3ccc(OC4(C)COC4)c(C(F)(F)F)c3)c(F)c2)c[nH]c1=O [Example 7, 1-(2-fluoro-4-(5-methyl-6-oxo-1,6-dihydropyridin-3-yl)phenyl)-3-(4-((3-methyloxetan-3-yl)oxy)-3-(trifluoromethyl)phenyl)urea]
< 100 nM	CCOc1cc(-c2ncc(NC(=O)Nc3cc(C(=O)NCCN(C)C)cc(C(F)(F)F)c3)cn2)c[nH]c1=O [Example 189, N-(2-(Dimethylamino)ethyl)-3-(3-(2-(5-ethoxy-6-oxo-1,6-dihydropyridin-3-yl)-pyrimidin-5-yl)ureido)-5-(trifluoromethyl)benzamide]
< 100 nM	CCOc1cc(-c2ncc(NC(=O)Nc3ccc(C(C)(C)C#N)c(C(F)(F)F)c3)c(C)n2)c[nH]c1=O [Example 23, 1-(4-(2-Cyanopropan-2-yl)-3-(trifluoromethyl)phenyl)-3-(2-(5-ethoxy-6-oxo-1,6-dihydropyridin-3-yl)-4-methylpyrimidin-5-yl)urea]
< 100 nM	O=C(Nc1ccc(OCCO)c(C(F)(F)F)c1)Nc1ccc(-c2c[nH]c(=O)c(OC(F)F)c2)cc1F [Example 164]
< 100 nM	CCOc1cc(=O)[nH]cc1-c1ncc(NC(=O)Nc2cc(-n3cnc(C)c3)cc(C(F)(F)F)c2)c(C)n1 [Example 52, 1-(2-(4-Ethoxy-6-oxo-1,6-dihydropyridin-3-yl)-4-methylpyrimidin-5-yl)-3-(3-(4-methyl-1H-imidazol-1-yl)-5-(trifluoromethyl)phenyl)urea]
< 100 nM	CCOc1cc(-c2ccc(NC(=O)Nc3ccc(F)c(C(F)(F)F)c3)c(F)c2)c[nH]c1=O [Example 156]
< 100 nM	CCOc1cc(-c2ccc(NC(=O)Nc3cc(C(F)(F)F)ccc3F)c(F)c2)c[nH]c1=O [Example 78]
< 100 nM	CCOc1cc(-c2ncc(NC(=O)Nc3cnc(C(C)(C)O)c(C(F)(F)F)c3)c(C)n2)c[nH]c1=O [Example 29, 1-(2-(5-Ethoxy-6-oxo-1,6-dihydropyridin-3-yl)-4-methylpyrimidin-5-yl)-3-(6-(2-hydroxypropan-2-yl)-5-(trifluoromethyl)pyridin-3-yl)urea]
< 100 nM	CCOc1cc(-c2ccc(NC(=O)Nc3ccc(C(C)O)c(C(F)(F)F)c3)c(F)c2)c[nH]c1=O (stereo not drawn) [Example 116]
< 100 nM	CCOc1cc(=O)[nH]cc1-c1ncc(NC(=O)Nc2ccc(C#N)c(C(F)(F)F)c2)c(C)n1 [Example 44, 1-(4-Cyano-3-(trifluoromethyl)phenyl)-3-(2-(4-ethoxy-6-oxo-1,6-dihydropyridin-3-yl)-4-methylpyrimidin-5-yl)urea]
< 100 nM	CCOc1cc(-c2ccc(NC(=O)Nc3ccc(CO)c(C(F)(F)F)c3)c(F)c2)c[nH]c1=O [Example 132]
< 100 nM	CCOc1cc(-c2ncc(NC(=O)Nc3ccc(CC(C)(C)C#N)c(C(F)(F)F)c3)c(C)n2)c[nH]c1=O [Example 14, 1-(4-(2-Cyano-2-methylpropyl)-3-(trifluoromethyl)phenyl)-3-(2-(5-ethoxy-6-oxo-1,6-dihydropyridin-3-yl)-4-methylpyrimidin-5-yl)urea]
< 100 nM	CCOc1cc(-c2ncc(NC(=O)Nc3cc(C(F)(F)F)c(CN(C)C)cc3F)c(C)n2)c[nH]c1=O [Example 190, 1-(4-((Dimethylamino)methyl)-2-fluoro-5-(trifluoromethyl)phenyl)-3-(2-(5-ethoxy-6-oxo-1,6-dihydropyridin-3-yl)-4-methylpyrimidin-5-yl)urea dihydrochloride]
< 100 nM	CCOc1cc(-c2ccc(NC(=O)Nc3ccc(CN4CCN(CC)CC4)c(C(F)(F)F)c3)c(C(F)F)c2)c[nH]c1=O [Example 30, 1-(2-(Difluoromethyl)-4-(5-ethoxy-6-oxo-1,6-dihydropyridin-3-yl)phenyl)-3-(4-((4-ethylpiperazin-1-yl)methyl)-3-(trifluoromethyl)phenyl)urea]
< 100 nM	CCOc1cc(-c2ccc(NC(=O)Nc3ccc(C4(CO)CC4)c(C(F)(F)F)c3)c(F)c2)c[nH]c1=O [Example 77]
